Experimental data taken from patent US20160206688A1, “METHODS FOR TREATING BACTEREMIA AND OSTEOMYELITIS USING ORITAVANCIN” (THE MEDICINES COMPANY, priority 2013, published 2016).
≈ marks a conversion by molar mass, not a printed value. Where two headings read alike, the source gives them in different places.

How the values were obtained:
[1] = tested on: Coagulase-negative staphylococci; assay: Broth microdilution MIC, European bacteraemia isolates 2010-2012; type: cell-based, coagulase-negative staphylococci (CoNS); settings: for inhibition at 0.06 µg/mL: at 0.06 mg/L; for inhibition at 0.12 µg/mL: at 0.12 mg/L
Experimental: (§1) A total of 2,904 clinical strains responsible for documented bacteremia among unique hospitalized patients in 38 hospitals in 11 European Union countries. Israel, Russia, Turkey and Ukraine were included in this study (2010-2012). Isolates were submitted to a central monitoring laboratory (JMI Laboratories, North Liberty. Iowa. USA), following previously established protocols. Bacterial species identification was performed by using an automated system (Vitek®2; bioMèrieux, Hazelwood, Mo., USA) or conventional biochemical algorithms, as required.
(§2) Isolates were tested for susceptibility by broth microdilution methods following the Clinical and Laboratory Standards Institute (CLSI; M07-A9, 2012) document. Susceptibility testing was performed in cation-adjusted Mueller-Hinton broth (CA-MHB) using dry-form panels manufactured by Thermo Fisher Scientific, formerly TREK Diagnostics Systems/Sensititre (Cleveland. Ohio, USA). These panels provide results equivalent to the CLSI-approved broth microdilution method supplemented with 0.002% polysorbate-80.
(§3) Quality assurance was performed by concurrent testing of CLSI-recommended (M100-S23, 2013) strains: E. faecalis ATCC 29212 and S. aureus ATCC 29213. Interpretation of comparator MIC results was in accordance with published CLSI (M100-S23) and European Committee on Antimicrobial Susceptibility Testing (EUCAST, 2013) criteria.

E. faecium = assay: as above; type: cell-based, Enterococcus faecium
Experimental: as §1, §2, §3

[2] = tested on: exponentially-growing S. aureus; settings: within 15 minutes to 2 hours; MSSA, MRSA, and VRSA; cited from earlier work
[3] = read-out: cumulative % inhibited at MIC, CoNS, Methicillin-resistant (509)
[4] = read-out: cumulative % inhibited at MIC, CoNS, Methicillin-susceptible (137)
[5] = E. faecium (315), at ≦0.008 mg/L
[6] = E. faecium, VanA-phenotype (53), at ≦0.008 mg/L
[7] = E. faecium, Vancomycin-susceptible (257), at ≦0.008 mg/L
[8] = Enterococcus faecium, Table 1, E. faecium (315)
[9] = Enterococcus faecium, Table 1, E. faecium, VanA-phenotype (53)
[10] = Enterococcus faecium, Table 1, E. faecium, Vancomycin-susceptible (257)
[11] = Enterococcus faecium, Table 2, E. faecium Vancomycin-resistant (VanA-phenotype) (153)
[12] = Enterococcus faecium, Table 2, E. faecium Vancomycin-susceptible (257)

## CN[C@H](CC(C)C)C(=O)N[C@H]1C(=O)N[C@@H](CC(N)=O)C(=O)N[C@H]2C(=O)N[C@H]3C(=O)N[C@H](C(=O)N[C@H](C(=O)O)c4cc(O)cc(O)c4-c4cc3ccc4O)[C@H](O[C@H]3C[C@](C)(N)[C@@H](O)[C@H](C)O3)c3ccc(c(Cl)c3)Oc3cc2cc(c3O[C@@H]2O[C@H](CO)[C@@H](O)[C@H](O)[C@H]2O[C@H]2C[C@](C)(NCc3ccc(-c4ccc(Cl)cc4)cc3)[C@@H](O)[C@H](C)O2)Oc2ccc(cc2Cl)[C@H]1O [Oritavancin, N-(4-(4-chlorophenyl)benzyl)A82846B]
[1]; [3]
  inhibition at 0.06 µg/mL: 92.7%
  inhibition at 0.12 µg/mL: 99.2%
[1]; read-out: cumulative % inhibited at MIC, CoNS, Methicillin-resistant (509), at 0.25 mg/L
  inhibition at 0.25 µg/mL: 100%
[1]; read-out: cumulative % inhibited at MIC, CoNS, Methicillin-susceptible (137), at 0.015 mg/L
  inhibition at 0.015 µg/mL: 47.5%
[1]; read-out: cumulative % inhibited at MIC, CoNS, Methicillin-susceptible (137), at 0.03 mg/L
  inhibition at 0.03 µg/mL: 83.9%
[1]; [4]
  inhibition at 0.06 µg/mL: 99.3%
  inhibition at 0.12 µg/mL: 100%
E. faecium; E. faecium (315), at 0.015 mg/L
  Number inhibited at MIC: 25
E. faecium; E. faecium (315), at 0.03 mg/L
  Number inhibited at MIC: 12
E. faecium; E. faecium (315), at 0.06 mg/L
  Number inhibited at MIC: 6
E. faecium; E. faecium (315), at 0.12 mg/L
  Number inhibited at MIC: 3
E. faecium; [5]
  Number inhibited at MIC: 269
  cumulative % inhibited at MIC: 85.4%
E. faecium; E. faecium, VanA-phenotype (53), at 0.015 mg/L
  Number inhibited at MIC: 19
E. faecium; E. faecium, VanA-phenotype (53), at 0.03 mg/L
  Number inhibited at MIC: 12
E. faecium; E. faecium, VanA-phenotype (53), at 0.06 mg/L
  Number inhibited at MIC: 6
E. faecium; E. faecium, VanA-phenotype (53), at 0.12 mg/L
  Number inhibited at MIC: 3
E. faecium; [6]
  Number inhibited at MIC: 13
  cumulative % inhibited at MIC: 24.5%
E. faecium; E. faecium, Vancomycin-susceptible (257), at 0.015 mg/L
  Number inhibited at MIC: 6
E. faecium; [7]
  Number inhibited at MIC: 251
  cumulative % inhibited at MIC: 97.7%
E. faecium; [8]
  MIC50: ≤ 0.008 µg/mL
  MIC90: 0.015 µg/mL (≈ 8.37 nM)
E. faecium; [9]
  MIC50: 0.015 µg/mL (≈ 8.37 nM)
  MIC90: 0.06 µg/mL (≈ 33.5 nM)
E. faecium; [10]
  MIC50: ≤ 0.008 µg/mL
  MIC90: ≤ 0.008 µg/mL
E. faecium; [11]
  MIC50: 0.015 µg/mL (≈ 8.37 nM)
  MIC90: 0.06 µg/mL (≈ 33.5 nM)
E. faecium; [12]
  MIC50: ≤ 0.0081 µg/mL
  MIC90: ≤ 0.008 µg/mL
E. faecium; Enterococcus faecium, read-out: MIC values
  MIC: ≤ 0.008 µg/mL
E. faecium; Enterococcus faecium, read-out: cumulative % inhibited at MIC, E. faecium (315), at 0.015 mg/L
  inhibition at 0.015 µg/mL: 93.3%
E. faecium; Enterococcus faecium, read-out: cumulative % inhibited at MIC, E. faecium (315), at 0.03 mg/L
  inhibition at 0.03 µg/mL: 97.1%
E. faecium; Enterococcus faecium, read-out: cumulative % inhibited at MIC, E. faecium (315), at 0.06 mg/L
  inhibition at 0.06 µg/mL: 99.1%
E. faecium; Enterococcus faecium, read-out: cumulative % inhibited at MIC, E. faecium (315), at 0.12 mg/L
  inhibition at 0.12 µg/mL: 100%
E. faecium; Enterococcus faecium, read-out: cumulative % inhibited at MIC, E. faecium, VanA-phenotype (53), at 0.015 mg/L
  inhibition at 0.015 µg/mL: 60.4%
E. faecium; Enterococcus faecium, read-out: cumulative % inhibited at MIC, E. faecium, VanA-phenotype (53), at 0.03 mg/L
  inhibition at 0.03 µg/mL: 83%
E. faecium; Enterococcus faecium, read-out: cumulative % inhibited at MIC, E. faecium, VanA-phenotype (53), at 0.06 mg/L
  inhibition at 0.06 µg/mL: 94.3%
E. faecium; Enterococcus faecium, read-out: cumulative % inhibited at MIC, E. faecium, VanA-phenotype (53), at 0.12 mg/L
  inhibition at 0.12 µg/mL: 100%
E. faecium; Enterococcus faecium, read-out: cumulative % inhibited at MIC, E. faecium, Vancomycin-susceptible (257), at 0.015 mg/L
  inhibition at 0.015 µg/mL: 100%
E. faecium; Table 2, E. faecium Vancomycin-resistant (VanA-phenotype) (153)
  MIC Range: ≦0.008-0.12 mg/L
E. faecium; Table 2, E. faecium Vancomycin-susceptible (257)
  MIC Range: ≦0.008-0.015 mg/L
E. faecium; VanA-phenotype E. faecium
  MIC50 and MIC90 lower than daptomycin and linezolid: 32- to 64 fold
E. faecium; VanA-phenotype E. faecium strains
  concentration inhibiting all strains: ≤ 0.12 mg/L
E. faecium; all E. faecium, including resistant subsets
  concentration inhibiting all strains: ≤ 0.12 mg/L
E. faecium; vancomycin-resistant (VanA-type) E. faecium strains
  activity relative to wild-type vancomycin-susceptible population: at least two-fold less active
[2]
  reduction (bactericidal activity): ≥ 3 log
